Measured values published in patent US11193941B2, “Method for evaluating condition of skin dryness” (KAO CORPORATION, priority 2014, dated 2021).

Test system: AGR2 mRNA
Test: Promoting action of humectant on AGR2 gene expression level in normal human epidermal cells (Real-Time PCR)
Type: cell-based
Details: NHEK, 72 hour culture; for AGR2 expression compared to that in the control: result in words; for AGR2 expression level (relative value): normalized with RPLP0, control (99.5% EtOH solvent) = 1, n=2
Protocol: The normal human epidermal cells (NHEK) were cultured under conditions of 37° C. and 5% CO2 using EpiLife (Registered Trademark) (purchased from Kurabo). The cells were seeded in a 12 well plate at 1×10^5 cells and cultured for 48 hours, and the medium was then exchanged with a serum-free medium. Further, vitamin D3, which is a known agent for ameliorating dry skin, (99.5% ethanol solution, final concentration 1 nM or 10 nM) (Nutrients, 4(9):1213-8, 2012), eucalyptus extract (50% ethanol solution, final concentration 0.001%) (J Cosmet Dermatol, 12(1):3-11, 2013), macrocarpal, which is a major physiologically active substance of eucalyptus extract (50% ethanol solution, final concentration 10 nM) (Int J Cosmet Sci, 34(1):17-22, 2012), or 99.5% ethanol or 50% ethanol as a control was added to the medium. After 72 hour culture, total RNA was extracted from cells using RNeasy (Registered Trademark) Mini Kit (QIAGEN). The concentration of total RNA was measured and a reverse transcription reaction was carried out using a constant amount of total RNA. High capacity RNA-to-cDNA kit (Applied Biosystems) was used for the reverse transcription reaction. The expression of AGR2 mRNA was quantitatively determined from the obtained cDNA by Real-Time PCR. Taqman (Registered Trademark) Probe (AGR2: Hs00180702_m1, Applied Biosystems) was used for quantitative determination, and PRISM 7500 (Applied Biosystems) was used for detection and quantitative determination. PCR was carried out in a 20 μL reaction system and the amplification conditions were a denaturation reaction at 95° C. for 15 seconds, annealing at 60° C. for a minute and an elongation reaction. The mRNA expression level was normalized with the expression level of RPLP0 (Hs99999902_m1, Applied Biosystems) and shown as a relative value in the case where the mean expression level of AGR2 in a control (only 99.5% EtOH solvent) was considered as 1.

Compound | AGR2 expression compared to that in the control | AGR2 expression level (relative value) (final concentration 1 nM) | AGR2 expression level (relative value) (final concentration 10 nM)
C=C1CC[C@H](O)C/C1=C/C=C1\CCC[C@]2(C)[C@@H]([C@H](C)CCCC(C)C)CC[C@@H]12 [Vitamin D3, vitamin D3] | increased | 1.05 | 1.17
macrocarpal | increased | – | 1.17
